Results: publication PMC6886544

Columns and labels:
EGFR-L858R [1] = target: T1, EGFR-L858R (Homo sapiens, UniProt P00533, L858R); assay: Kinetic characterization (Ki, kinact), EGFR-L858R
[2] = Microsomal stability (phase I), mouse; format: in vitro ADME; details: mouse liver microsomes, up to 60 minutes, 37 °C
Protocol: Microsomal stability (phase I) assay.
Metabolic stability under oxidative conditions was measured in liver microsomes from different
time up to 50 minutes (HLM) or 60 minutes (MLM) at 37 °C. Based on the compound half-life t1/2,
the in vitro intrinsic clearance CLint was calculated. […]

H358 cells (KRAS mutant) = assay: CellTiter-Glo viability assay, H358; format: cell-based; details: Homo sapiens, NCI-H358; H358, 96 hours, CellTiter-Glo; read-out: KRAS CTG EC50 H358;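 further: viable cell number estimated from ATP-dependent luminescence following exposure to serially diluted inhibitor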
EGFR-wt [3] = target: T2, EGFR-wt (Homo sapiens, UniProt P00533); assay: Kinetic characterization (Ki, kinact), EGFR-wt
[4] = tested on: EGFR and downstream cascade phosphorylation in H1975 cells; assay: Western blot analysis in H1975 cells; format: cell-based; details: 1 h inhibitor then EGF stimulation
Protocol: and incubated at 37 °C and 5% CO2. On day 2 cells were starved over night with media containing 0.5% FBS to be incubated on day 3 for 1 h with EGFR inhibitors following an additional 30 min of EGF stimulation at 50 ng/mL. The media was discarded and cells were washed once with DPBS
1x. Using 100 μL per well of lysis buffer, cells were then scraped off and lysed while rotating (Stuart Scientific, Staffordshire, UK) for 1 h at 4 °C. […] Supernatant was transferred into new tube and protein concentrations were determined with the Bio-Rad Protein Assay (Bio-Rad Laboratories, Hercules, CA). […]
captured and quantified using a FUJI LAS3000 system with Science Lab 2001 ImageGauge 4.0 software (Fujifilm Medial Systems, Stamford CT, USA). […]
glycerol, 1 mM TCEP, pH 8) on ice for 1 h. We analyzed the aliquots by ESI-MS using an Thermo Fisher Scientific Dionex UltiMate 3000 HPLC system connected to a Thermo Fisher Scientific Velos Pro (2d ion trap). Therefore, 5 μL of sample was injected and separated using a Vydac 214TP C4 5 μm column (150 mm x 2.1 mm) starting at 20% of solvent B for 5 minutes followed by a gradient up to 90% of solvent B over 14 min with a flow rate of 210 μL/min with 0.1% TFA in water as solvent A and 0.1% TFA in MeCN as solvent B. A mass range of 700 to 2000 m/z was scanned and raw data was deconvoluted and analyzed with MagTran software (Z.Q. Zhang, A.G. […]

[5] = tested on: H1975 cells (EGFR-L858R/T790M); assay: CellTiter-Glo viability assay, H1975; details: Homo sapiens, NCI-H1975, 96 h, read-out: EGFR CTG EC50 H1975, H1975, 96 hours, CellTiter-Glo
EGFR-L858R/T790M [6] = target: T3, EGFR-L858R/T790M (Homo sapiens, UniProt P00533, L858R/T790M); assay: Kinetic characterization (Ki, kinact), EGFR-L858R/T790M
EGFR-wt [7] = target: T2, EGFR-wt; assay: HTRF KinEASE-TK activity-based assay, EGFR-wt; details: EGFR HTRF IC50 wt, ATP at Km (9.5 µM), 30 min preincubation; mean ± SD of three independent measurements in duplicates
EGFR-L858R/T790M [8] = target: T3, EGFR-L858R/T790M; assay: HTRF KinEASE-TK activity-based assay, EGFR-L858R/T790M; details: EGFR HTRF IC50 L858R/T790M, ATP at Km (4 µM), 30 min preincubation; mean ± SD of three independent measurements in duplicates
A549 cells (KRAS mutant) = assay: CellTiter-Glo viability assay, A549; details: Homo sapiens, A549, 96 h, read-out: KRAS CTG EC50 A549
EGFR-L858R [9] = target: T1, EGFR-L858R; assay: HTRF KinEASE-TK activity-based assay, EGFR-L858R
[10] = tested on: HCC827 cells (EGFR-delE746_A750); assay: CellTiter-Glo viability assay, HCC827; format: cell-based; details: Homo sapiens; HCC827, 96 hours, CellTiter-Glo; read-out: EGFR CTG EC50 HCC827;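 further: luminescence from ATP content as a measure of metabolically active cells, in RPMI with 10% FBS, compound added as serial dilutions after 24 h of preculture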
[11] = tested on: A431 cells (EGFR wild type); assay: CellTiter-Glo viability assay, A431; details: Homo sapiens, A-431, 96 h, read-out: EGFR CTG EC50 A431, A431, 96 hours, CellTiter-Glo

T3 sequence (P00533 25-1210 T790M/L858R): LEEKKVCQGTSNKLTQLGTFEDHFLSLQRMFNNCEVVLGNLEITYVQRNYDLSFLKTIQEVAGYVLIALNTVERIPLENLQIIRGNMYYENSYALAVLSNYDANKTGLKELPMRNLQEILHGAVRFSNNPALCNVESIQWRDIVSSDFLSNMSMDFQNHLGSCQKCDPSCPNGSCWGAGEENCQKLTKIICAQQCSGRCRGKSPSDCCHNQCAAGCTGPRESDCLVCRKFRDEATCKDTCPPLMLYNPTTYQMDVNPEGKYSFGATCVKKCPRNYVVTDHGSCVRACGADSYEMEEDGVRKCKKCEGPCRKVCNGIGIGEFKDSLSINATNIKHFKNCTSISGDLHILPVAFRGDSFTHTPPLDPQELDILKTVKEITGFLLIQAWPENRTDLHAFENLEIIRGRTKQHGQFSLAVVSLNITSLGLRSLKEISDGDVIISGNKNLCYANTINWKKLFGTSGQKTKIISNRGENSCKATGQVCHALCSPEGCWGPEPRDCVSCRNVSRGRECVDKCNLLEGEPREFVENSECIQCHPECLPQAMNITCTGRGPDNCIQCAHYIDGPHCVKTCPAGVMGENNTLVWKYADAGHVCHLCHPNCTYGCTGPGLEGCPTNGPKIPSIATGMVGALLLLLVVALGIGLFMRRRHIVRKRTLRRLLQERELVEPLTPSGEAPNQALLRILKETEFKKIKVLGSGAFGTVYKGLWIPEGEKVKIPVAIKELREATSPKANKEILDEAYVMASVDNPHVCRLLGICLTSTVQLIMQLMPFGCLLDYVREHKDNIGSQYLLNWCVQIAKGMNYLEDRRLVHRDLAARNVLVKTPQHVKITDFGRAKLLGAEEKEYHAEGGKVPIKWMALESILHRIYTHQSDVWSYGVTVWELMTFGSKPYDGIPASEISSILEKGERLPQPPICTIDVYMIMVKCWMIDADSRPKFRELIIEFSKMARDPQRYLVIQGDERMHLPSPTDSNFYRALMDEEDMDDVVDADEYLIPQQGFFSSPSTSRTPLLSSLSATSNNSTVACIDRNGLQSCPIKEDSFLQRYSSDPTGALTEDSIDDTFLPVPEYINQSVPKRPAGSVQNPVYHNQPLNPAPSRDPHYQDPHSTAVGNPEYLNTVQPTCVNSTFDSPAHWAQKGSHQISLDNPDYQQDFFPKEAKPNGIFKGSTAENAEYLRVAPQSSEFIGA
T1 sequence (P00533 25-1210 L858R): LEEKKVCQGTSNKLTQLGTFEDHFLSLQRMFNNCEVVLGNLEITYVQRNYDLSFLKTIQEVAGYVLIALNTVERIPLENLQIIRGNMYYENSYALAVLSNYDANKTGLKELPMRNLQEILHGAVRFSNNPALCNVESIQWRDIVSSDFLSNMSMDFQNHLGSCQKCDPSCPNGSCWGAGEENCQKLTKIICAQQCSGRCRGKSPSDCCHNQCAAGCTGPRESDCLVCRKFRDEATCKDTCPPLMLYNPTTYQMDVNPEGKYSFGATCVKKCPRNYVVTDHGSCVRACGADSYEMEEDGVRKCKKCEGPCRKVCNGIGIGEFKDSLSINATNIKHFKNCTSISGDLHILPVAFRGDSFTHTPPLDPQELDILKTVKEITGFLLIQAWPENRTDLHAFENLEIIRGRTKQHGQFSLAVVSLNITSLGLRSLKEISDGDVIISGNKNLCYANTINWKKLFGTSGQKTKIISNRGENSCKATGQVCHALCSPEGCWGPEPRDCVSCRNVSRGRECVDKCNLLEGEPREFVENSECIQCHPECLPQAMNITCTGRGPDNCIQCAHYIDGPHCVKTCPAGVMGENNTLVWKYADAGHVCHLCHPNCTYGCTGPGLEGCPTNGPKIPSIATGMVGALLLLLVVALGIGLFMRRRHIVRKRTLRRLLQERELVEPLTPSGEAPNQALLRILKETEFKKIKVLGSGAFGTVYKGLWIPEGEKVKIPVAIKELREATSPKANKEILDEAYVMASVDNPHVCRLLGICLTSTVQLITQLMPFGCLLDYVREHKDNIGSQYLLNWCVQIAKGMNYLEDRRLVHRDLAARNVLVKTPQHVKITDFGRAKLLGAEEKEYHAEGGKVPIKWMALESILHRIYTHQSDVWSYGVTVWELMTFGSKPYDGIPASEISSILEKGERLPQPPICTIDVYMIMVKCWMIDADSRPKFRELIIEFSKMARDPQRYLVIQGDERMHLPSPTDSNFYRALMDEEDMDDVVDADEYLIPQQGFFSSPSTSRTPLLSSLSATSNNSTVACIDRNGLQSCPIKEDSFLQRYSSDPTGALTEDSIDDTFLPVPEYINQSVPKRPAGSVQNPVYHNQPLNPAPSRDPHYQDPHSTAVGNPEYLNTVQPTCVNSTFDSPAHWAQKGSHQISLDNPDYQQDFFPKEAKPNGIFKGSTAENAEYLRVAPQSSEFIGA
T2 sequence (P00533 25-1210): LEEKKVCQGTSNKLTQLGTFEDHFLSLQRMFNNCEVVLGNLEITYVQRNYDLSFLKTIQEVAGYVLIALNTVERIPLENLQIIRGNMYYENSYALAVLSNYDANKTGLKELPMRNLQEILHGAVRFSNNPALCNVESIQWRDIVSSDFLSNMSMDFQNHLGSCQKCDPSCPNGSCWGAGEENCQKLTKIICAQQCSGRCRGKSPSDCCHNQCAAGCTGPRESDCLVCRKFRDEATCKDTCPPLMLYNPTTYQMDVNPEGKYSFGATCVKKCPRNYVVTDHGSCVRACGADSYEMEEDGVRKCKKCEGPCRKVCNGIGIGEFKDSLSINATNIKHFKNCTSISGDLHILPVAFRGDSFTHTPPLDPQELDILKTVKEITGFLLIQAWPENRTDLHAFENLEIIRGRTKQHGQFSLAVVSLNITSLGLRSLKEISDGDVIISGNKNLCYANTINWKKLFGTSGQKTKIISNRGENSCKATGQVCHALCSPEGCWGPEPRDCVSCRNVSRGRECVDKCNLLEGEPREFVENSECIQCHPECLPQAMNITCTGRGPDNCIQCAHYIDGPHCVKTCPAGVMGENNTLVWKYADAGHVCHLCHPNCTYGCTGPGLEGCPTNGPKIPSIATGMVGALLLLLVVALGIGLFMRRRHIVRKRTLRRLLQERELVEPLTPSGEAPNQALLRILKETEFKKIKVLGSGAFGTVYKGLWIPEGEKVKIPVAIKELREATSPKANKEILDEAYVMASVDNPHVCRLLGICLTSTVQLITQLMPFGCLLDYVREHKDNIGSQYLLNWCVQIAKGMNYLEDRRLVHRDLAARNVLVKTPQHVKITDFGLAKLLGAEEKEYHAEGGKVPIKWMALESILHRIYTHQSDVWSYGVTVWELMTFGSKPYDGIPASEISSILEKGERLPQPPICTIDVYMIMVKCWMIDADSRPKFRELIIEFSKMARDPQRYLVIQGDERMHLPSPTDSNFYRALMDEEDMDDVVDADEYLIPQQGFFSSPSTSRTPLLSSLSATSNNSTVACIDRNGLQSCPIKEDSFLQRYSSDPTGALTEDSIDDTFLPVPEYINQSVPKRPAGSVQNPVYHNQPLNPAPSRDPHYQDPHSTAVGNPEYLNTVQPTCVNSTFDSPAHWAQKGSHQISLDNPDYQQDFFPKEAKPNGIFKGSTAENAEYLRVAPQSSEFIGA

Ki (EGFR-L858R [1]): 10 ± 1 nM
kinact (EGFR-L858R [1]): 0.00317 s⁻¹
kinact/KI (EGFR-L858R [1]): 310000 ± 110000 M⁻¹ s⁻¹
microsomal CLint at 3 µM [2]: 8 µL/min/mg
EC50 (H358 cells (KRAS mutant)): 9390 ± 3380 nM
Ki (EGFR-wt [3]): 10 ± 1 nM
kinact (EGFR-wt [3]): 0.00167 s⁻¹
kinact/KI (EGFR-wt [3]): 160000 ± 60000 M⁻¹ s⁻¹
EC50 [5]: 65 ± 11 nM
Ki (EGFR-L858R/T790M [6]): 15 ± 3 nM
kinact (EGFR-L858R/T790M [6]): 0.00433 s⁻¹
kinact/KI (EGFR-L858R/T790M [6]): 300000 ± 90000 M⁻¹ s⁻¹
IC50 (EGFR-wt [7]): 1 ± 0.1 nM
IC50 (EGFR-L858R/T790M [8]): 1 ± 0.3 nM
EC50 (A549 cells (KRAS mutant)): 5720 ± 240 nM
IC50 (EGFR-L858R [9]): 0.4 nM
EC50 [10]: 67 ± 7 nM
EC50 [11]: 1410 ± 917 nM
Compound: C=CC(=O)Nc1cccc(-c2c(-c3ccc(N4CCN(C)CC4)cc3)[nH]c3ncn(C(C)C)c(=O)c23)c1 [Compound 29g]
concentration at which phosphorylation of EGFR and downstream proteins was reduced/inhibited [4]: around 100 nM
